Counter-ions that a name gives are not always drawn.

This experiment deals with T1, DMT1 (Homo sapiens, UniProt P49281).
T1 sequence (P49281 1-568): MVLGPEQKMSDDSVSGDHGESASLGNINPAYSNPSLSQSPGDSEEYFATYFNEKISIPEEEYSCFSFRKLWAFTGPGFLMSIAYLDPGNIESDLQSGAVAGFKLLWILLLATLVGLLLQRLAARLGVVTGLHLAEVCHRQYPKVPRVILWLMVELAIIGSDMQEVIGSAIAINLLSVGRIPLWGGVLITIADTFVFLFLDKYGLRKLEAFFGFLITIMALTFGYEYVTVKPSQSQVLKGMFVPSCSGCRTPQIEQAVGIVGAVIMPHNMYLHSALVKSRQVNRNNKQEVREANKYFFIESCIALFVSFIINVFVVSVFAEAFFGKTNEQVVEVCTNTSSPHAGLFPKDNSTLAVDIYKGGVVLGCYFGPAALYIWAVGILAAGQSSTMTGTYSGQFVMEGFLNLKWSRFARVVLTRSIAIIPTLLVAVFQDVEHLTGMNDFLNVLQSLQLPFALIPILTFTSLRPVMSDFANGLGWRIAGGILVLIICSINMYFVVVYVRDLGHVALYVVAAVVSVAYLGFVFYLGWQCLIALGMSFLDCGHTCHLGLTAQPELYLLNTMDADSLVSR
Nature of the experiment: DMT1 Activity Assay (In Vitro Assay). The format is cell-based. The following applies: read-out: IC50 Activity Level. An excerpt: In particular, identification of the compounds of the invention ability to modulate, preferably to inhibit, DMT1 activity, can be assessed using a variety of in vitro and in vivo assays, for measuring uptake of reduced iron (Fe^2+). One such protocol involves the screening of chemical agents for ability to modulate the activity of DMT1 thereby identifying it as a modulating agent. The in vitro activity of DMT1 can be measured in cell based assays by either directly measuring iron flux (using a radioactively labelled iron ^55Fe) or by measuring the fluorescence of a cell permeable iron fluorophore such as calcein. Stable cell lines overexpressing DMT1 are exposed to ^55Fe or loaded with calcein and then compound is applied. […] Alternatively, in another format electrophysiological techniques can be used to measure the current or iron or other metals traversing the cell membrane with DMT1 in a Xenopus oocyte or other cell based system (Gunshin et al., Nature, 1997, 31; 388(6641):482-8).
This example discloses various in vitro assay for testing and profiling test agents against DMT1 stably expressed in cells of either an endogenous or recombinant origin. These assays can use stable cell lines overexpressing DMT1 or intestinal cells and intestinal tissue expressing endogenous DMT1. DMT1 function could also be assessed in other cell types that express DMT1. Of greatest relevance would be the erythrocytes (e.g. K562 cells) or hepatocytes (e.g. […]).
DMT1 function can be assessed in a number of ways, including monitoring fluorescence changes of an iron fluorophore (e.g. calcein), monitoring uptake of radiolabelled iron (55Fe or ^59Fe) (Picard et al., J. Biol. Chem., 2000, 275(46):35738-45 and Wetli et al., Chem. Biol. 2006 September; 13(9):965-72), or by assessing the current or transport of iron and other metals into the cells or tissues using standard electrophysiological techniques (Gunshin et al., Nature, 1997, 388(6641):482-8.).
Variations of these assays involve alterations of incubation times, the iron status of the cells and tissues (which may be modulated by chemical chelators or by harvesting from iron deficient animals), the metal cation detected and the pH of the reaction can generally be made by conventional techniques known to those skilled in the art.
As to `CC(SC(=N)N)c1ccccc1Oc1ccccc1C(C)SC(=N)N` (stereo not drawn) [Example 1, 2-(1-{2-[2-(1-carbamimidoylsulfanylethyl)phenoxy]phenyl}ethyl)-isothiourea dihydrobromide], the IC50 (commonly the midpoint of a concentration-inhibition curve) was ≥ 1000 nM.

As to `N=C(N)SCc1ccccc1Sc1ccccc1CSC(=N)N` [Example 1.1, 2-[2-(2-carbamimidoylsulfanylmethylphenylsulfanyl)benzyl]isothiourea dihydrobromide], the IC50 is 100 to 1000 nM.

As to `N=C(N)SCc1ccccc1Sc1ccc(F)cc1CSC(=N)N` [Example 1.2, 2-[2-(2-carbamimidoylsulfanylmethyl-4-fluorophenylsulfanyl)benzyl]-isothiourea dihydrobromide], the IC50 was 100 to 1000 nM.

In the case of `Cc1ccc(CSC(=N)N)c(Sc2ccccc2CSC(=N)N)c1` [Example 1.3, 2-[2-(2-carbamimidoylsulfanylmethyl-5-methylphenylsulfanyl)-benzyl]isothiourea dihydrobromide], the IC50 was ≥ 1000 nM.

Turning to `COc1ccc(Sc2ccccc2CSC(=N)N)c(CSC(=N)N)c1` [Example 1.4, 2-[2-(2-carbamimidoylsulfanylmethyl-4-methoxyphenylsulfanyl)-benzyl]isothiourea dihydrobromide], the IC50 is ≥ 1000 nM.

For the compound `Cc1ccc(CSC(=N)N)c(Sc2ccc(F)cc2CSC(=N)N)c1` [Example 1.5, 2-[2-(2-carbamimidoylsulfanylmethyl-5-methylphenylsulfanyl)-5-fluorobenzyl]isothiourea dihydrobromide], the IC50 was ≥ 1000 nM.

Take `COc1ccc(Sc2ccc(F)cc2CSC(=N)N)c(CSC(=N)N)c1` [Example 1.6, 2-[2-(2-carbamimidoylsulfanylmethyl-4-methoxyphenylsulfanyl)-5-fluorobenzyl]isothiourea dihydrobromide]: the IC50 lay within 100 to 1000 nM.

Regarding `N=C(N)SCc1cc(F)ccc1Sc1cc(Cl)ccc1CSC(=N)N` [Example 1.7, 2-[2-(2-carbamimidoylsulfanylmethyl-5-chloro-phenylsulfanyl)-5-fluoro-benzyl]-isothiourea dihydrobromide], the IC50 is 100 to 1000 nM.

With `Cc1cccc(CSC(=N)N)c1Sc1ccccc1CSC(=N)N` [Example 1.8, 2-[2-(2-carbamimidoylsulfanylmethyl-6-methylphenylsulfanyl)-benzyl]isothiourea dihydrobromide], the IC50 was ≥ 1000 nM.

In the case of `N=C(N)SCc1ccccc1Sc1cc(F)c(F)cc1CSC(=N)N` [Example 1.9, 2-[2-(2-carbamimidoylsulfanylmethyl-4,5-difluorophenylsulfanyl)-benzyl]isothiourea dihydrobromide], the IC50 lay in the range of 100 to 1000 nM.

Regarding `Cc1ccc(Sc2ccccc2CSC(=N)N)c(CSC(=N)N)c1` [Example 1.10, 2-[2-(2-carbamimidoylsulfanylmethyl-4-methylphenylsulfanyl)-benzyl]isothiourea dihydrobromide], the concentration for half-maximal inhibition (IC50) is 100 to 1000 nM.

Regarding `N=C(N)SCc1ccccc1Sc1cc(Cl)ccc1CSC(=N)N` [Example 1.11, 2-[2-(2-carbamimidoylsulfanylmethyl-5-chlorophenylsulfanyl)-benzyl]isothiourea dihydrobromide], the IC50 lay within 100 to 1000 nM.

In the case of `N=C(N)SCc1ccccc1Sc1cc(F)ccc1CSC(=N)N` [Example 1.12, 2-[2-(2-carbamimidoylsulfanylmethyl-5-fluorophenylsulfanyl)benzyl]-isothiourea dihydrobromide], the IC50 lay within 100 to 1000 nM.

`N=C(N)SCc1ccccc1Sc1ccc2ccccc2c1CSC(=N)N` [Example 1.13, 2-[2-(1-carbamimidoylsulfanylmethylnaphthalen-2-ylsulfanyl)benzyl]-isothiourea dihydrobromide]: the IC50 was ≥ 1000 nM.

`N=C(N)SCc1cc(F)ccc1Sc1ccc2ccccc2c1CSC(=N)N` [Example 1.14, 2-[2-(1-carbamimidoylsulfanylmethylnaphthalen-2-ylsulfanyl)-5-fluorobenzyl]isothiourea dihydrobromide]: the IC50 was ≥ 1000 nM.

As to `N=C(N)SCc1cc(F)ccc1Sc1cc(F)ccc1CSC(=N)N` [Example 1.15, 2-[2-(2-carbamimidoylsulfanylmethyl-5-fluorophenylsulfanyl)-5-fluorobenzyl]isothiourea dihydrobromide], the IC50 was 100 to 1000 nM.

As to `N=C(N)SCc1cc(F)ccc1Sc1cc(F)c(F)cc1CSC(=N)N` [Example 1.16, 2-[2-(2-carbamimidoylsulfanylmethyl-4,5-difluorophenylsulfanyl)-5-fluorobenzyl]isothiourea dihydrobromide], the IC50 lay in the range of 100 to 1000 nM.

With `N=C(N)SCc1cc(F)ccc1Sc1c(CSC(=N)N)cccc1[N+](=O)[O-]` [Example 1.17, 2-[2-(2-carbamimidoylsulfanylmethyl-4-fluorophenylsulfanyl)-3-nitrobenzyl]isothiourea dihydrobromide], the IC50 is ≥ 1000 nM.

In the case of `N=C(N)SCc1cc(F)ccc1Sc1ccc(C(F)(F)F)cc1CSC(=N)N` [Example 1.18, 2-[2-(2-carbamimidoylsulfanylmethyl-4-fluorophenylsulfanyl)-5-(trifluoromethyl)benzyl]isothiourea dihydrobromide], the IC50 is ≥ 1000 nM.

Take `N=C(N)SCc1ccccc1Sc1ccc(N)cc1CSC(=N)N` [Example 1.19, 2-[2-(2-carbamimidoylsulfanylmethylphenylsulfanyl)-5-aminobenzyl]-isothiourea trihydrobromide]: the IC50 was in the range of 100 to 1000 nM.

For `N=C(N)SCc1cc(F)ccc1Sc1ccc(Cl)cc1CSC(=N)N` [Example 1.20, 2-[2-(2-carbamimidoylsulfanylmethyl-4-chlorophenylsulfanyl)-5-fluorobenzyl]isothiourea dihydrobromide], the IC50 is 100 to 1000 nM.

Turning to `CCNc1ccc(Sc2ccccc2CSC(=N)N)c(CSC(=N)N)c1` [Example 1.21, 2-[2-(2-carbamimidoylsulfanylmethylphenylsulfanyl)-5-ethylaminobenzyl]isothiourea trihydrobromide], the IC50 is ≥ 1000 nM.

In the case of `N=C(N)SCc1cc(Cl)ccc1Sc1ccc(Cl)cc1CSC(=N)N` [Example 1.22, 2-[2-(2-carbamimidoylsulfanylmethyl-4-chlorophenylsulfanyl)-5-chlorobenzyl]isothiourea dihydrobromide], the IC50 is ≥ 1000 nM.

As to `N=C(N)SCCc1cc(F)ccc1Sc1ccc(F)cc1CSC(=N)N` [Example 1.23, 2-[2-(2-carbamimidoylsulfanylethyl-4-fluorophenylsulfanyl)-5-fluorobenzyl]isothiourea dihydrobromide], the IC50 was in the range of 100 to 1000 nM.

`N=C(N)SCCc1cc(Cl)ccc1Sc1ccc(F)cc1CSC(=N)N` [Example 1.24, 2-[2-(2-carbamimidoylsulfanylethyl-4-chlorophenylsulfanyl)-5-fluorobenzyl]isothiourea dihydrobromide]: the IC50 was 100 to 1000 nM.

With `N=C(N)SCCc1ccccc1Sc1ccccc1CSC(=N)N` [Example 1.25, 2-[2-(2-carbamimidoylsulfanylethylphenylsulfanyl)benzyl]isothiourea dihydrobromide], the IC50 is ≥ 1000 nM.

Consider `N=C(N)SCc1ccccc1Sc1ccc(Cl)cc1CSC(=N)N` [Example 1.26, 2-[2-(2-carbamimidoylsulfanylmethylphenylsulfanyl)-5-chlorobenzyl]-isothiourea dihydrobromide], for which the half-inhibitory concentration (IC50) fell in the range of 100 to 1000 nM.

The values are drawn from patent US20080234384A1, “BIARYL AND BIHETEROARYL COMPOUNDS USEFUL IN TREATING IRON DISORDERS” (XENON PHARMACEUTICALS INC., priority 2007, published 2008).
